Assay results published in patent US6358885B1, “Substituted phenylheterocyclic herbicides” (Mississippi State University, priority 1992, dated 2002).

Legend:
Assay in all cases: Test B preemergence/postemergence greenhouse plant response rating 0 to 10
Details in all cases: 0 to 10 scale
morningglory = format: in vivo, Ipomoea hederacea
Method in brief: (§1)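 Both application timings were run together: seeds got compound preemergence, and established seedlings (two to eighteen cm) got it postemergence. Non-phytotoxic solvent carried the chemical. Ratings are visual, versus controls, at twelve to sixteen days.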

wheat = format: in vivo, Triticum aestivum
Method in brief: as §1

cocklebur = format: in vivo, Xanthium pensylvanicum
Method in brief: as §1

wild buckwheat = format: in vivo, Polygonum convolvulus
Method in brief: as §1

soybean = format: in vivo, Glycine max
Method in brief: as §1

velvetleaf = format: in vivo, Abutilon theophrasti
Method in brief: as §1

barley = format: in vivo, Hordeum vulgare
Method in brief: as §1

sorghum = format: in vivo, Sorghum bicolor
Method in brief: as §1

rice = format: in vivo, Oryza sativa
Method in brief: as §1

purple nutsedge = format: in vivo, Cyperus rotundus
Method in brief: as §1

barnyardgrass = format: in vivo, Echinochloa crus-galli
Method in brief: as §1

chickweed = format: in vivo, Stellaria media
Method in brief: as §1

sugar beet = format: in vivo, Beta vulgaris
Method in brief: as §1

bedstraw = format: in vivo, Galium aparine
Method in brief: as §1

crabgrass = format: in vivo, Digitaria spp.
Method in brief: as §1

rape = format: in vivo, Brassica napus
Method in brief: as §1

cheatgrass = format: in vivo, Bromus secalinus
Method in brief: as §1

lambsquarters = format: in vivo, Chenopodium album
Method in brief: as §1

blackgrass = format: in vivo, Alopecurus myosuroides
Method in brief: as §1

cotton = format: in vivo, Gossypium hirsutum
Method in brief: as §1

giant foxtail = format: in vivo, Setaria faberii
Method in brief: as §1

wild oat = format: in vivo, Avena fatua
Method in brief: as §1

corn = format: in vivo, Zea mays
Method in brief: as §1

O=C1COc2cc(F)c(-c3nn4c(c3Cl)CCCC4)cc2N1 [Compound 51]
Plant response rating, Morningglory (morningglory; POSTEMERGENCE, Rate 50 g/ha): 9
Plant response rating, Morningglory (morningglory; PREEMERGENCE, Rate 50 g/ha): 9
Plant response rating, Morningglory (morningglory; Rate 200 g/ha, POSTEMERGENCE): 10
Plant response rating, Morningglory (morningglory; Rate 200 g/ha, PREEMERGENCE): 10
Plant response rating, Wheat (wheat; POSTEMERGENCE, Rate 50 g/ha): 3
Plant response rating, Wheat (wheat; PREEMERGENCE, Rate 50 g/ha): 0
Plant response rating, Wheat (wheat; Rate 200 g/ha, POSTEMERGENCE): 4
Plant response rating, Wheat (wheat; Rate 200 g/ha, PREEMERGENCE): 2
Plant response rating, Cocklebur (cocklebur; POSTEMERGENCE, Rate 50 g/ha): 9
Plant response rating, Cocklebur (cocklebur; POSTEMERGENCE, Rate 200 g/ha): 10
Plant response rating, Cocklebur (cocklebur; PREEMERGENCE, Rate 50 g/ha): 2
Plant response rating, Cocklebur (cocklebur; Rate 200 g/ha, PREEMERGENCE): 9
Plant response rating, Wild buckwheat (wild buckwheat; POSTEMERGENCE, Rate 50 g/ha): 10
Plant response rating, Wild buckwheat (wild buckwheat; PREEMERGENCE, Rate 50 g/ha): 10
Plant response rating, Wild buckwheat (wild buckwheat; Rate 200 g/ha, POSTEMERGENCE): 10
Plant response rating, Wild buckwheat (wild buckwheat; Rate 200 g/ha, PREEMERGENCE): 10
Plant response rating, Soybean (soybean; POSTEMERGENCE, Rate 50 g/ha): 8
Plant response rating, Soybean (soybean; PREEMERGENCE, Rate 50 g/ha): 1
Plant response rating, Soybean (soybean; Rate 200 g/ha, POSTEMERGENCE): 9
Plant response rating, Soybean (soybean; Rate 200 g/ha, PREEMERGENCE): 8
Plant response rating, Velvetleaf (velvetleaf; POSTEMERGENCE, Rate 50 g/ha): 9
Plant response rating, Velvetleaf (velvetleaf; PREEMERGENCE, Rate 50 g/ha): 10
Plant response rating, Velvetleaf (velvetleaf; Rate 200 g/ha, POSTEMERGENCE): 10
Plant response rating, Velvetleaf (velvetleaf; Rate 200 g/ha, PREEMERGENCE): 10
Plant response rating, Barley (barley; POSTEMERGENCE, Rate 50 g/ha): 3
Plant response rating, Barley (barley; POSTEMERGENCE, Rate 200 g/ha): 3
Plant response rating, Barley (barley; PREEMERGENCE, Rate 50 g/ha): 0
Plant response rating, Barley (barley; Rate 200 g/ha, PREEMERGENCE): 0
Plant response rating, Sorghum (sorghum; POSTEMERGENCE, Rate 50 g/ha): 4
Plant response rating, Sorghum (sorghum; PREEMERGENCE, Rate 50 g/ha): 0
Plant response rating, Sorghum (sorghum; Rate 200 g/ha, POSTEMERGENCE): 6
Plant response rating, Sorghum (sorghum; Rate 200 g/ha, PREEMERGENCE): 0
Plant response rating, Rice (rice; POSTEMERGENCE, Rate 50 g/ha): 3
Plant response rating, Rice (rice; PREEMERGENCE, Rate 50 g/ha): 0
Plant response rating, Rice (rice; Rate 200 g/ha, POSTEMERGENCE): 5
Plant response rating, Rice (rice; Rate 200 g/ha, PREEMERGENCE): 2
Plant response rating, Nutsedge (purple nutsedge; POSTEMERGENCE, Rate 50 g/ha): 3
Plant response rating, Nutsedge (purple nutsedge; PREEMERGENCE, Rate 50 g/ha): 0
Plant response rating, Nutsedge (purple nutsedge; Rate 200 g/ha, POSTEMERGENCE): 3
Plant response rating, Nutsedge (purple nutsedge; Rate 200 g/ha, PREEMERGENCE): 0
Plant response rating, Barnyardgrass (barnyardgrass; POSTEMERGENCE, Rate 50 g/ha): 8
Plant response rating, Barnyardgrass (barnyardgrass; POSTEMERGENCE, Rate 200 g/ha): 9
Plant response rating, Barnyardgrass (barnyardgrass; PREEMERGENCE, Rate 50 g/ha): 9
Plant response rating, Barnyardgrass (barnyardgrass; Rate 200 g/ha, PREEMERGENCE): 9
Plant response rating, Chickweed (chickweed; POSTEMERGENCE, Rate 50 g/ha): 10
Plant response rating, Chickweed (chickweed; POSTEMERGENCE, Rate 200 g/ha): 10
Plant response rating, Chickweed (chickweed; PREEMERGENCE, Rate 50 g/ha): 6
Plant response rating, Chickweed (chickweed; Rate 200 g/ha, PREEMERGENCE): 10
Plant response rating, Sugar beet (sugar beet; POSTEMERGENCE, Rate 50 g/ha): 10
Plant response rating, Sugar beet (sugar beet; PREEMERGENCE, Rate 50 g/ha): 10
Plant response rating, Sugar beet (sugar beet; Rate 200 g/ha, POSTEMERGENCE): 10
Plant response rating, Sugar beet (sugar beet; Rate 200 g/ha, PREEMERGENCE): 10
Plant response rating, Bedstraw (bedstraw; POSTEMERGENCE, Rate 50 g/ha): 10
Plant response rating, Bedstraw (bedstraw; POSTEMERGENCE, Rate 200 g/ha): 10
Plant response rating, Bedstraw (bedstraw; PREEMERGENCE, Rate 50 g/ha): 5
Plant response rating, Bedstraw (bedstraw; Rate 200 g/ha, PREEMERGENCE): 10
Plant response rating, Crabgrass (crabgrass; POSTEMERGENCE, Rate 50 g/ha): 4
Plant response rating, Crabgrass (crabgrass; POSTEMERGENCE, Rate 200 g/ha): 5
Plant response rating, Crabgrass (crabgrass; PREEMERGENCE, Rate 50 g/ha): 2
Plant response rating, Crabgrass (crabgrass; Rate 200 g/ha, PREEMERGENCE): 9
Plant response rating, Rape (rape; POSTEMERGENCE, Rate 50 g/ha): 7
Plant response rating, Rape (rape; PREEMERGENCE, Rate 50 g/ha): 8
Plant response rating, Rape (rape; Rate 200 g/ha, POSTEMERGENCE): 10
Plant response rating, Rape (rape; Rate 200 g/ha, PREEMERGENCE): 10
Plant response rating, Cheatgrass (cheatgrass; POSTEMERGENCE, Rate 50 g/ha): 4
Plant response rating, Cheatgrass (cheatgrass; POSTEMERGENCE, Rate 200 g/ha): 4
Plant response rating, Cheatgrass (cheatgrass; PREEMERGENCE, Rate 50 g/ha): 3
Plant response rating, Cheatgrass (cheatgrass; Rate 200 g/ha, PREEMERGENCE): 5
Plant response rating, Lambsquarter (lambsquarters; POSTEMERGENCE, Rate 50 g/ha): 10
Plant response rating, Lambsquarter (lambsquarters; PREEMERGENCE, Rate 50 g/ha): 10
Plant response rating, Lambsquarter (lambsquarters; Rate 200 g/ha, POSTEMERGENCE): 10
Plant response rating, Lambsquarter (lambsquarters; Rate 200 g/ha, PREEMERGENCE): 10
Plant response rating, Blackgrass (blackgrass; POSTEMERGENCE, Rate 50 g/ha): 6
Plant response rating, Blackgrass (blackgrass; POSTEMERGENCE, Rate 200 g/ha): 6
Plant response rating, Blackgrass (blackgrass; PREEMERGENCE, Rate 50 g/ha): 2
Plant response rating, Blackgrass (blackgrass; Rate 200 g/ha, PREEMERGENCE): 6
Plant response rating, Cotton (cotton; POSTEMERGENCE, Rate 50 g/ha): 10
Plant response rating, Cotton (cotton; POSTEMERGENCE, Rate 200 g/ha): 10
Plant response rating, Cotton (cotton; PREEMERGENCE, Rate 50 g/ha): 1
Plant response rating, Cotton (cotton; Rate 200 g/ha, PREEMERGENCE): 5
Plant response rating, Giant foxtail (giant foxtail; POSTEMERGENCE, Rate 50 g/ha): 4
Plant response rating, Giant foxtail (giant foxtail; PREEMERGENCE, Rate 50 g/ha): 2
Plant response rating, Giant foxtail (giant foxtail; Rate 200 g/ha, POSTEMERGENCE): 6
Plant response rating, Giant foxtail (giant foxtail; Rate 200 g/ha, PREEMERGENCE): 8
Plant response rating, Wild oat (wild oat; POSTEMERGENCE, Rate 50 g/ha): 2
Plant response rating, Wild oat (wild oat; PREEMERGENCE, Rate 50 g/ha): 0
Plant response rating, Wild oat (wild oat; Rate 200 g/ha, POSTEMERGENCE): 3
Plant response rating, Corn (corn; POSTEMERGENCE, Rate 50 g/ha): 4
Plant response rating, Corn (corn; POSTEMERGENCE, Rate 200 g/ha): 6
Plant response rating, Corn (corn; PREEMERGENCE, Rate 50 g/ha): 0
Plant response rating, Corn (corn; Rate 200 g/ha, PREEMERGENCE): 0
